Key:
Alternaria solani = Alternaria solani (early blight of tomatoes), tomato leaf disks; format: in vivo; settings: foliar, inoculated 2 days after application, compared to untreated control
Experimental: Alternaria solani (Early Blight of Tomatoes) Tomato leaf disks are placed on agar in multiwell plates (24-well format) and sprayed with the formulated test compound diluted in water. The leaf disks are inoculated with a spore suspension of the fungus 2 days after application. The inoculated leaf disks are incubated at 23° C./21° C.

Pyricularia oryzae = experiment: whole plant or invertebrate; format: in vivo; settings: foliar, 120 h, read-out: control of Pyricularia oryzae
[1] = test system: Erysiphe graminis f. sp. tritici; experiment: Erysiphe graminis f. sp. tritici (wheat powdery mildew), wheat leaf segments, preventive; format: in vivo; settings: Blumeria graminis, foliar, 168 h, 7 dpi, compared to untreated control
Experimental: (§1) Wheat leaf segments are placed on agar in multiwell plates (24-well format) and sprayed with test solutions. After drying, the leaf disks are inoculated with spores of the fungus. After appropriate incubation the activity of a compound is assessed 7 dpi (days post inoculation) as preventive fungicidal activity.

Glomerella lagenarium = Glomerella lagenarium syn. Colletotrichum lagenarium (anthracnose of cucurbits), liquid culture growth inhibition; format: cell-based; settings: Colletotrichum orbiculare, nutrient broth (PDB), 72 hrs, photometric at 620 nm, compared to untreated control
Experimental: Glomerella lagenarium Syn. Colletotrichum lagenarium (Anthracnose of Cucurbits): Conidia of the fungus from cryogenic storage were directly mixed into nutrient broth (PDB potato dextrose broth). A DMSO solution of the test compounds was placed into a microtiter plate (96-well format) and the nutrient broth containing the fungal spores was added to it. The test plates were incubated at 24° C. and the inhibition of growth was determined photometrically after 72 hrs at 620 nm. […]

[2] = test system: Puccinia recondita f. sp. tritici; experiment: Puccinia recondita (brown rust), preventative, wheat leaf segments; format: in vivo; settings: foliar, 192 h, 8 dpi, compared to untreated control
Experimental: as §1, with “segments” for “disks”, “a spore suspension” for “spores”, “8” for “7”, “after” for “post”, “preventative” for “preventive”

Plasmopara viticola = Plasmopara viticola (downy mildew of grapevine), grape vine leaf disks, preventive; format: in vivo; settings: foliar, 168 h, 7 dpi, compared to untreated control
Experimental: as §1, with “Grape vine” for “Wheat”, “disks” for “segments”, “a spore suspension” for “spores”, “after” for “post”

Mycosphaerella arachidis = Mycosphaerella arachidis syn. Cercospora arachidicola (brown leaf spot of peanut), liquid culture growth inhibition; format: cell-based; settings: nutrient broth (PDB), approximately 5-6 days, photometric at 620 nm, compared to untreated control
Experimental: Conidia of the fungus from cryogenic storage were directly mixed into nutrient broth (PDB potato dextrose broth). A DMSO solution of the test compounds was placed into a microtiter plate (96-well format) and the nutrient broth containing the fungal spores was added to it. The test plates were incubated at 24° C. and the inhibition of growth was determined photometrically after approximately 5-6 […] at 620 nm.

Monographella nivalis = Monographella nivalis syn. Microdochium nivale (snow mould, foot rot of cereals), liquid culture growth inhibition; format: cell-based; settings: nutrient broth (PDB), 72 hrs, photometric at 620 nm, compared to untreated control
Experimental: Conidia of the fungus from cryogenic storage were directly mixed into nutrient broth (PDB potato dextrose broth). A DMSO solution of the test compounds was placed into a microtiter plate (96-well format) and the nutrient broth containing the fungal spores was added to it. The test plates were incubated at 24° C. and the inhibition of growth was determined photometrically after 72 hrs at 620 nm. […] Cercospora arachidicola (Brown Leaf Spot of Peanut): […]

Phytophthora infestans = experiment: whole plant or invertebrate; format: in vivo; settings: in Solanum lycopersicum, foliar, 96 h, read-out: control of Phytophthora infestans
[3] = test system: Puccinia recondita f. sp. tritici; experiment: Puccinia recondita (brown rust), curative, wheat leaf segments; format: in vivo; settings: foliar, 192 h, sprayed 1 day after inoculation, 8 dpi, compared to untreated control
Experimental: Wheat leaf segments are placed on agar in multiwell plates (24-well format). The leaf segments are inoculated with a spore suspension of the fungus and sprayed with test solutions 1 day after inoculation. After appropriate incubation the activity of a compound is assessed 8 dpi (days after inoculation) as curative fungicidal activity.

Phakopsora pachyrhizi = Phakopsora pachyrhizi (soybean rust), soybean leaf disks, preventive; format: in vivo; settings: foliar, 288 h, approx. 12 dpi, compared to untreated control
Experimental: as §1, with “Soybean” for “Wheat”, “disks” for “segments”, “a spore suspension” for “spores”, “approx. 12” for “7”, “after” for “post”

`CO/C=C(\Oc1cc(C2=CC(C)(C)CCC2=O)ccc1C)C(=O)OC` [F.1, methyl (Z)-2-[5-(3,3-dimethyl-6-oxo-cyclohexen-1-yl)-2-methyl-phenoxy]-3-methoxy-prop-2-enoate] was tested, and the pest or weed control at 200 ppm (Alternaria solani) was ≥ 80%, the pest or weed control at 200 ppm (Pyricularia oryzae) was ≥ 80% and the pest or weed control at 200 ppm [1] was ≥ 80%. For the same compound, the inhibition of growth at 20 ppm (Glomerella lagenarium) was ≥ 80%, the pest or weed control at 200 ppm [2] was ≥ 80% and the pest or weed control at 200 ppm (Plasmopara viticola) was ≥ 80%.
For `CO/C=C(\Oc1cc(C2CCC(OC(F)F)CC2)ccc1C)C(=O)OC` (stereo not shown) [E.23, methyl (Z)-2-[5-[4-(difluoromethoxy)cyclohexyl]-2-methyl-phenoxy]-3-methoxy-prop-2-enoate], the inhibition of growth at 20 ppm (Mycosphaerella arachidis) was ≥ 80%, the inhibition of growth at 20 ppm (Monographella nivalis) was ≥ 80% and the pest or weed control at 200 ppm (Alternaria solani) was ≥ 80%. For the same compound, the pest or weed control at 200 ppm (Pyricularia oryzae) was ≥ 80%, the pest or weed control at 200 ppm [1] was ≥ 80% and the inhibition of growth at 20 ppm (Glomerella lagenarium) was ≥ 80%. For the same compound, the pest or weed control at 200 ppm [2] was ≥ 80% and the pest or weed control at 200 ppm (Plasmopara viticola) was ≥ 80%.
For `CO/C=C(\Oc1cc(C2CCC(C)(C)CC2)ccc1C)C(=O)OC` [E.2, methyl (Z)-2-[5-(4,4-dimethylcyclohexyl)-2-methyl-phenoxy]-3-methoxy-prop-2-enoate], the inhibition of growth at 20 ppm (Mycosphaerella arachidis) was ≥ 80%, the inhibition of growth at 20 ppm (Monographella nivalis) was ≥ 80% and the pest or weed control at 200 ppm (Phytophthora infestans) was ≥ 80%. For the same compound, the pest or weed control at 200 ppm [1] was ≥ 80%, the pest or weed control at 200 ppm [2] was ≥ 80% and the pest or weed control at 200 ppm (Plasmopara viticola) was ≥ 80%.
In the case of `CO/C=C(\Oc1cc(C2CCC(=NOC)CC2)ccc1C)C(=O)OC` (stereo not shown) [E.20, methyl (Z)-3-methoxy-2-[5-(4-methoxyimino-cyclohexyl)-2-methyl-phenoxy]prop-2-enoate], the pest or weed control at 200 ppm [3] is reported as ≥ 80%, the inhibition of growth at 20 ppm (Mycosphaerella arachidis) is reported as ≥ 80% and the inhibition of growth at 20 ppm (Monographella nivalis) is reported as ≥ 80%. The pest or weed control at 200 ppm (Alternaria solani) was ≥ 80%, the pest or weed control at 200 ppm (Pyricularia oryzae) was ≥ 80% and the pest or weed control at 200 ppm [1] was ≥ 80%. For the same compound, the inhibition of growth at 20 ppm (Glomerella lagenarium) was ≥ 80%, the pest or weed control at 60 ppm (Phakopsora pachyrhizi) was ≥ 70% and the pest or weed control at 200 ppm [2] was ≥ 80%. For the same compound, the pest or weed control at 200 ppm (Plasmopara viticola) was ≥ 80%.
In the case of `CO/C=C(\Oc1cc(C2=CCCCC2)c(F)cc1C)C(=O)OC` [F.6, methyl (Z)-2-[5-(cyclohexen-1-yl)-4-fluoro-2-methyl-phenoxy]-3-methoxy-prop-2-enoate], the pest or weed control at 200 ppm [3] is reported as ≥ 80%, the inhibition of growth at 20 ppm (Mycosphaerella arachidis) is reported as ≥ 80% and the inhibition of growth at 20 ppm (Monographella nivalis) is reported as ≥ 80%. For the same compound, the pest or weed control at 200 ppm [1] was ≥ 80%, the inhibition of growth at 20 ppm (Glomerella lagenarium) was ≥ 80% and the pest or weed control at 60 ppm (Phakopsora pachyrhizi) was ≥ 70%. For the same compound, the pest or weed control at 200 ppm [2] was ≥ 80% and the pest or weed control at 200 ppm (Plasmopara viticola) was ≥ 80%.
For `CO/C=C(\Oc1cc(C2=CCCCC2)ccc1C)C(=O)OC` [F.2, methyl (Z)-2-[5-(cyclohexen-1-yl)-2-methyl-phenoxy]-3-methoxy-prop-2-enoate], the pest or weed control at 200 ppm [3] was ≥ 80%, the pest or weed control at 200 ppm [1] was ≥ 80% and the inhibition of growth at 20 ppm (Glomerella lagenarium) was ≥ 80%. For the same compound, the pest or weed control at 60 ppm (Phakopsora pachyrhizi) was ≥ 70%, the pest or weed control at 200 ppm [2] was ≥ 80% and the pest or weed control at 200 ppm (Plasmopara viticola) was ≥ 80%.
`CO/C=C(\Oc1cc(C2CC(C)(C)CCC2=O)ccc1C)C(=O)OC` (stereo not shown) [E.5, methyl (Z)-2-[5-(5,5-dimethyl-2-oxo-cyclohexyl)-2-methyl-phenoxy]-3-methoxy-prop-2-enoate] was tested, and the pest or weed control at 200 ppm (Phytophthora infestans) was ≥ 80%, the pest or weed control at 200 ppm [1] was ≥ 80% and the pest or weed control at 200 ppm [2] was ≥ 80%. For the same compound, the pest or weed control at 200 ppm (Plasmopara viticola) was ≥ 80%.
For `CO/C=C(\Oc1cc(C2=CCCC2)ccc1C)C(=O)OC` [F.4, methyl (Z)-2-[5-(cyclopenten-l-yI)-2-methyl-phenoxy]-3-methoxy-prop-2-enoate], the inhibition of growth at 20 ppm (Mycosphaerella arachidis) was ≥ 80%, the inhibition of growth at 20 ppm (Monographella nivalis) was ≥ 80% and the pest or weed control at 200 ppm [1] was ≥ 80%. The inhibition of growth at 20 ppm (Glomerella lagenarium) was ≥ 80%, the pest or weed control at 60 ppm (Phakopsora pachyrhizi) was ≥ 70% and the pest or weed control at 200 ppm [2] was ≥ 80%. For the same compound, the pest or weed control at 200 ppm (Plasmopara viticola) was ≥ 80%.
With `CO/C=C(\Oc1cc(C2CC2C2CC2)ccc1C)C(=O)OC` (stereo not shown) [E.7, methyl (Z)-2-[5-(2-cyclopropylcyclopropyl)-2-methyl-phenoxy]-3-methoxy-prop-2-enoate] the pest or weed control at 200 ppm [3] was ≥ 80%, the inhibition of growth at 20 ppm (Mycosphaerella arachidis) was ≥ 80% and the inhibition of growth at 20 ppm (Monographella nivalis) was ≥ 80%. For the same compound, the pest or weed control at 200 ppm (Pyricularia oryzae) was ≥ 80%, the pest or weed control at 200 ppm (Phytophthora infestans) was ≥ 80% and the pest or weed control at 200 ppm [1] was ≥ 80%. For the same compound, the inhibition of growth at 20 ppm (Glomerella lagenarium) was ≥ 80%, the pest or weed control at 200 ppm [2] was ≥ 80% and the pest or weed control at 200 ppm (Plasmopara viticola) was ≥ 80%.
In the case of `CO/C=C(\Oc1cc(C2=CCC(C(F)F)CC2)ccc1C)C(=O)OC` (stereo not shown) [F.7, methyl (Z)-2-[5-[4-(difluoromethyl)cyclohexen-1-yl]-2-methyl-phenoxy]-3-methoxy-prop-2-enoate], the pest or weed control at 200 ppm [3] is reported as ≥ 80%, the inhibition of growth at 20 ppm (Mycosphaerella arachidis) is reported as ≥ 80% and the inhibition of growth at 20 ppm (Monographella nivalis) is reported as ≥ 80%. For the same compound, the pest or weed control at 200 ppm (Alternaria solani) was ≥ 80%, the pest or weed control at 200 ppm [1] was ≥ 80% and the inhibition of growth at 20 ppm (Glomerella lagenarium) was ≥ 80%. The pest or weed control at 200 ppm [2] was ≥ 80% and the pest or weed control at 200 ppm (Plasmopara viticola) was ≥ 80%.
For `CO/C=C(\Oc1cc(C2=CCC(F)(F)CC2)ccc1C)C(=O)OC` [F.3, methyl (Z)-2-[5-(4,4-difluorocyclohexen-1-yl)-2-methyl-phenoxy]-3-methoxy-prop-2-enoate], the inhibition of growth at 20 ppm (Mycosphaerella arachidis) was ≥ 80%, the inhibition of growth at 20 ppm (Monographella nivalis) was ≥ 80% and the pest or weed control at 200 ppm [1] was ≥ 80%. For the same compound, the inhibition of growth at 20 ppm (Glomerella lagenarium) was ≥ 80%, the pest or weed control at 60 ppm (Phakopsora pachyrhizi) was ≥ 70% and the pest or weed control at 200 ppm [2] was ≥ 80%. The pest or weed control at 200 ppm (Plasmopara viticola) was ≥ 80%.
For `CO/C=C(\Oc1cc(C2CCC2)ccc1C)C(=O)OC` [E.12, methyl (Z)-2-(5-cyclobuty1-2-methyl-phenoxy)-3-methoxy-prop-2-enoate], the pest or weed control at 200 ppm [3] was ≥ 80%, the inhibition of growth at 20 ppm (Mycosphaerella arachidis) was ≥ 80% and the inhibition of growth at 20 ppm (Monographella nivalis) was ≥ 80%. The pest or weed control at 200 ppm (Pyricularia oryzae) was ≥ 80%, the pest or weed control at 200 ppm [1] was ≥ 80% and the inhibition of growth at 20 ppm (Glomerella lagenarium) was ≥ 80%. The pest or weed control at 60 ppm (Phakopsora pachyrhizi) was ≥ 70%, the pest or weed control at 200 ppm [2] was ≥ 80% and the pest or weed control at 200 ppm (Plasmopara viticola) was ≥ 80%.
`CCON=C1CCC(c2ccc(C)c(O/C(=C\OC)C(=O)OC)c2)CC1` (stereo not shown) [E.21, methyl (Z)-2-[5-(4-ethoxyiminocyclohexyl)-2-methyl-phenoxy]-3-methoxy-prop-2-enoate] was tested, and the pest or weed control at 200 ppm [3] was ≥ 80%, the inhibition of growth at 20 ppm (Mycosphaerella arachidis) was ≥ 80% and the inhibition of growth at 20 ppm (Monographella nivalis) was ≥ 80%. The pest or weed control at 200 ppm (Pyricularia oryzae) was ≥ 80%, the pest or weed control at 200 ppm [1] was ≥ 80% and the inhibition of growth at 20 ppm (Glomerella lagenarium) was ≥ 80%. For the same compound, the pest or weed control at 60 ppm (Phakopsora pachyrhizi) was ≥ 70%, the pest or weed control at 200 ppm [2] was ≥ 80% and the pest or weed control at 200 ppm (Plasmopara viticola) was ≥ 80%.
For `CO/C=C(\Oc1cc(C2CCCCC2)ccc1Cl)C(=O)OC` [E.9, methyl (Z)-2-(2-chloro-5-cyclohexyl-phenoxy)-3-methoxy-prop-2-enoate], the inhibition of growth at 20 ppm (Mycosphaerella arachidis) was ≥ 80%, the inhibition of growth at 20 ppm (Monographella nivalis) was ≥ 80% and the pest or weed control at 200 ppm (Phytophthora infestans) was ≥ 80%. The pest or weed control at 200 ppm [1] was ≥ 80%, the inhibition of growth at 20 ppm (Glomerella lagenarium) was ≥ 80% and the pest or weed control at 200 ppm [2] was ≥ 80%. The pest or weed control at 200 ppm (Plasmopara viticola) was ≥ 80%.
For `CO/C=C(\Oc1cc(C2CCC(C(F)F)CC2)ccc1C)C(=O)OC` (stereo not shown) [E.22, methyl (Z)-2-[5-[4-(difluoromethyl)cyclohexyl]-2-methyl-phenoxy]-3-methoxy-prop-2-enoate], the inhibition of growth at 20 ppm (Mycosphaerella arachidis) was ≥ 80%, the inhibition of growth at 20 ppm (Monographella nivalis) was ≥ 80% and the pest or weed control at 200 ppm (Alternaria solani) was ≥ 80%. For the same compound, the pest or weed control at 200 ppm (Phytophthora infestans) was ≥ 80%, the pest or weed control at 200 ppm [1] was ≥ 80% and the inhibition of growth at 20 ppm (Glomerella lagenarium) was ≥ 80%. The pest or weed control at 200 ppm [2] was ≥ 80% and the pest or weed control at 200 ppm (Plasmopara viticola) was ≥ 80%.

Reference: patent US12262710B2, “Fungicidal compounds” (SYNGENTA CROP PROTECTION AG, priority 2019, dated 2025)
